{"source": "patent US8440612B2", "about": "“Controlling giardiosis” (Bayer Intellectual Property GmbH, priority 2008, dated 2013)", "tested_on": "Giardia duodenalis", "experiment": "Giardia cyst excretion in infected Beagle puppies, oral dose on three successive days (Biological Example 2)", "assay_type": "in vivo", "method": "Method: The quantitative determination of the cyst excretion was performed using a modified version of Hewlett (18): 4 g faeces were dissolved in 100 ml of water, sieved and allowed to sediment. The sediment was applied to a 1 M sucrose gradient (specific gravity 1.13), and the cysts, which were concentrated at the sucrose/water boundary layer after the centrifugation were pipetted off. After a wash step followed by centrifugation, the cysts in the pellet were counted. To this end, an aliquot of the pellet was counted under the microscope, and the number of cysts per g faeces was calculated.\nBeagle puppies aged 11-15 weeks which had at least 2 weeks to settle in the animal centre before being infected were infected orally with 50 000 Giardia duodenalis cysts before the beginning of the study. The cysts for the infection were obtained with the aid of a sucrose gradient from the faeces of dogs which excreted Giardia cysts and stored at 4 degrees centigrade in Bacto-Casitone medium for no longer than 2 weeks. 18 puppies which excreted Giardia cysts were included in the study and kept in individual cages in order to collect the daily total faeces. The quantitative determination of the cyst excretion was performed as an […], with the modification that the aliquot of the pellet was counted under the microscope with the aid of a Fuchs-Rosenthal hematocytometer. The quantitative determination of the cyst excretion was performed for 4 days before the treatment (day −3 to 0), and the puppies were divided randomly into three groups, taking into consideration the cyst excretion. […] The 6 dogs of the control group remained untreated. The quantitative determination of the cyst excretion was continued from day 1 to day 8 after the treatment.", "note": "Several values for one entry are separate records, joined by “and”; a condition that tells them apart may be missing. Equal values may be shown once."}
{"smiles": "COC(=O)Nc1nc2ccc(Sc3ccccc3)cc2[nH]1", "note": "[fenbendazole]", "values": [{"measurement": "Activity", "setting": "calculated activity on cyst excretion versus infected untreated control, day 3 to 8, 50 mg/kg oral on days 0, 1 and 2, 50 mg/kg", "result": 48.3, "unit": "%"}, {"measurement": "Σ Giardia cyst excretion D0", "setting": "group line Σ (6 dogs), D0, day of treatment, 50 mg/kg oral on days D0, D1 and D2", "result": 20274, "unit": "cysts per g faeces"}, {"measurement": "Σ Giardia cyst excretion D1", "setting": "group line Σ (6 dogs), D1, day of treatment, 50 mg/kg oral on days D0, D1 and D2", "result": 17010, "unit": "cysts per g faeces"}, {"measurement": "Σ Giardia cyst excretion D2", "setting": "group line Σ (6 dogs), D2, day of treatment, 50 mg/kg oral on days D0, D1 and D2", "result": 1735, "unit": "cysts per g faeces"}, {"measurement": "Σ Giardia cyst excretion D3", "setting": "group line Σ (6 dogs), D3, after the treatment, 50 mg/kg oral on days D0, D1 and D2", "result": 13929, "unit": "cysts per g faeces"}, {"measurement": "Σ Giardia cyst excretion D4", "setting": "group line Σ (6 dogs), D4, after the treatment, 50 mg/kg oral on days D0, D1 and D2", "result": 12781, "unit": "cysts per g faeces"}, {"measurement": "Σ Giardia cyst excretion D5", "setting": "group line Σ (6 dogs), D5, after the treatment, 50 mg/kg oral on days D0, D1 and D2", "result": 7555, "unit": "cysts per g faeces"}, {"measurement": "Σ Giardia cyst excretion D6", "setting": "group line Σ (6 dogs), D6, after the treatment, 50 mg/kg oral on days D0, D1 and D2", "result": 5494, "unit": "cysts per g faeces"}, {"measurement": "Σ Giardia cyst excretion D7", "setting": "group line Σ (6 dogs), D7, after the treatment, 50 mg/kg oral on days D0, D1 and D2", "result": 12913, "unit": "cysts per g faeces"}, {"measurement": "Σ Giardia cyst excretion D8", "setting": "group line Σ (6 dogs), D8, after the treatment, 50 mg/kg oral on days D0, D1 and D2", "result": 4795, "unit": "cysts per g faeces"}, {"measurement": "Σ Giardia cyst excretion D−1", "setting": "group line Σ (6 dogs), day −1, before treatment, 50 mg/kg oral on days D0, D1 and D2", "result": 58990, "unit": "cysts per g faeces"}, {"measurement": "Σ Giardia cyst excretion D−2", "setting": "group line Σ (6 dogs), day −2, before treatment, 50 mg/kg oral on days D0, D1 and D2", "result": 22257, "unit": "cysts per g faeces"}, {"measurement": "Σ Giardia cyst excretion D−3", "setting": "group line Σ (6 dogs), day −3, before treatment, 50 mg/kg oral on days D0, D1 and D2", "result": 29963, "unit": "cysts per g faeces"}, {"measurement": "Σ Giardia cyst excretion Day 3 to 8", "setting": "group, after treatment, 50 mg/kg oral on days 0, 1 and 2", "result": 9578, "unit": "cysts per g faeces"}, {"measurement": "Σ Giardia cyst excretion Day: −3 to 0", "setting": "group, before treatment, 50 mg/kg oral on days 0, 1 and 2", "result": 32871, "unit": "cysts per g faeces"}, {"measurement": "Giardia cyst excretion D0", "setting": "individual dogs, D0, day of treatment, 50 mg/kg oral on days D0, D1 and D2, 50 mg/kg", "result": "49400 cysts per g faeces and 28559 cysts per g faeces and 639 cysts per g faeces and 2719 cysts per g faeces and 17037 cysts per g faeces and 23290 cysts per g faeces"}, {"measurement": "Giardia cyst excretion D1", "setting": "individual dogs, D1, day of treatment, 50 mg/kg oral on days D0, D1 and D2, 50 mg/kg", "result": "67200 cysts per g faeces and 14596 cysts per g faeces and 872 cysts per g faeces and 12488 cysts per g faeces and 6178 cysts per g faeces and 723 cysts per g faeces"}, {"measurement": "Giardia cyst excretion D2", "setting": "individual dogs, D2, day of treatment, 50 mg/kg oral on days D0, D1 and D2, 50 mg/kg", "result": "0 cysts per g faeces (2×) and 5980 cysts per g faeces and 3386 cysts per g faeces and 490 cysts per g faeces and 552 cysts per g faeces"}, {"measurement": "Giardia cyst excretion D3", "setting": "individual dogs, D3, after the treatment, 50 mg/kg oral on days D0, D1 and D2, 50 mg/kg", "result": "67109 cysts per g faeces and 7043 cysts per g faeces and 961 cysts per g faeces and 3075 cysts per g faeces and 0 cysts per g faeces and 5388 cysts per g faeces"}, {"measurement": "Giardia cyst excretion D4", "setting": "individual dogs, D4, after the treatment, 50 mg/kg oral on days D0, D1 and D2, 50 mg/kg", "result": "49423 cysts per g faeces and 652 cysts per g faeces and 439 cysts per g faeces and 12038 cysts per g faeces and 0 cysts per g faeces and 14133 cysts per g faeces"}, {"measurement": "Giardia cyst excretion D5", "setting": "individual dogs, D5, after the treatment, 50 mg/kg oral on days D0, D1 and D2, 50 mg/kg", "result": "3116 cysts per g faeces and 18725 cysts per g faeces and 4432 cysts per g faeces and 0 cysts per g faeces (2×) and 19057 cysts per g faeces"}, {"measurement": "Giardia cyst excretion D6", "setting": "individual dogs, D6, after the treatment, 50 mg/kg oral on days D0, D1 and D2, 50 mg/kg", "result": "4635 cysts per g faeces and 7546 cysts per g faeces and 5594 cysts per g faeces and 3691 cysts per g faeces and 0 cysts per g faeces and 11495 cysts per g faeces"}, {"measurement": "Giardia cyst excretion D7", "setting": "individual dogs, D7, after the treatment, 50 mg/kg oral on days D0, D1 and D2, 50 mg/kg", "result": "17474 cysts per g faeces and 20780 cysts per g faeces and 260 cysts per g faeces and 18056 cysts per g faeces and 251 cysts per g faeces and 20657 cysts per g faeces"}, {"measurement": "Giardia cyst excretion D8", "setting": "individual dogs, D8, after the treatment, 50 mg/kg oral on days D0, D1 and D2, 50 mg/kg", "result": "0 cysts per g faeces (2×) and 5555 cysts per g faeces and 5968 cysts per g faeces and 10875 cysts per g faeces and 6370 cysts per g faeces"}, {"measurement": "Giardia cyst excretion D−1", "setting": "individual dogs, day −1, before treatment, 50 mg/kg oral on days D0, D1 and D2, 50 mg/kg", "result": "243143 cysts per g faeces and 56014 cysts per g faeces and 2349 cysts per g faeces and 16328 cysts per g faeces and 14744 cysts per g faeces and 21360 cysts per g faeces"}, {"measurement": "Giardia cyst excretion D−2", "setting": "individual dogs, day −2, before treatment, 50 mg/kg oral on days D0, D1 and D2, 50 mg/kg", "result": "47754 cysts per g faeces and 23808 cysts per g faeces and 26526 cysts per g faeces and 18113 cysts per g faeces and 7230 cysts per g faeces and 10109 cysts per g faeces"}]}
